# Measured values reported in paper PMC7327145 (Biomolecules & Therapeutics, 2020).
# Values joined by “and” are separate entries in the source; they are usually repeats but may differ in a detail not shown here. Identical values can stand only once. Like-named read-outs stand apart in the source and are kept apart here.
# Assays:
# [1] = format: in vivo, rat; settings: for AUC / clearance / MRT / half-life / Vd: plasma; for clearance: CL; for half-life: Terminal half-life; for Vd: VSS
# [2] = format: in vivo, rat; settings: for CL renal: plasma and urine, CLR; for bioavailability: oral, F (bioavailability), oral 20 mg/kg vs intravenous 10 mg/kg
# [3] = Tissue distribution of tofacitinib 30 min after intravenous administration; format: in vivo, rat; settings: 30 min after intravenous 10 mg/kg, control and SIDM rats
# [4] = Rat plasma protein binding by equilibrium dialysis; format: in vitro ADME; settings: fresh plasma, pH 7.4, Plasma protein binding, range over control and SIDM rats
# [5] = hepatic microsomes, SIDM vs control
# [6] = intestinal microsomes
# [7] = ref Lawendy et al., 2009; Dowty et al., 2014; cited from earlier work
# [8] = system: P-glycoprotein (P-gp); settings: ref Hussa, 2014; cited from earlier work
# [9] = intravenous 10 mg/kg, SIDM rats
# [10] = intravenous 10 mg/kg, SIDM vs control
# [11] = intravenous 10 mg/kg, control rats
# [12] = rat, iv, 10 mg/kg, control rats
smiles,measurement,setting,value
"C[C@@H]1CCN(C(=O)CC#N)C[C@@H]1N(C)c1ncnc2[nH]ccc12 [tofacitinib, 3-[(3R,4R)-4-methyl-3-[methyl-(7H-pyrrolo[2,3-day]pyrimidin-4-yl)amino]piperidin-1-yl]-3-oxopropanenitrile]",Ae0-24 h (dose excreted in urine for 24 h),[1]; [9],6.64 ± 1.65 % of dose
same,CLNR,[1]; [9],55.5 ± 9.79 mL/min/kg
same,CLR estimated from the free (unbound to plasma proteins) fraction,[1]; [9],6.15 mL/min/kg
same,Contribution of CLR to CL,[1]; [9],7.97%
same,AUC smaller in SIDM rats than control rats,[1]; [10],33.6%
same,CL higher in SIDM rats than control rats,[1]; [10],51.1%
same,CLNR higher in SIDM rats than control rats,[1]; [10],43.8%
same,CLR higher in SIDM rats than control rats,[1]; [10],87.5%
same,Vss greater in SIDM rats than control rats,[1]; [10],262%
same,Ae0-24 h (dose excreted in urine for 24 h),[1]; [11],6.99 ± 2.30 % of dose
same,CLNR,[1]; [11],38.6 ± 8.04 mL/min/kg
same,CLR estimated from the free (unbound to plasma proteins) fraction,[1]; [11],3.33 mL/min/kg
same,Contribution of CLR to CL,[1]; [11],6.42%
same,CL renal,"[1]; rat, plasma and urine, iv, 10 mg/kg, CLR, control rats",2.56 ± 0.59 mL/min/kg
same,AUC,"[1]; rat, iv, 10 mg/kg, SIDM rats (n=7)",2830 ng·h/mL
same,AUC,"[1]; rat, iv, 10 mg/kg, control rats (n=9)",4270 ng·h/mL
same,clearance,"[1]; rat, iv, 10 mg/kg, SIDM rats",60.3 ± 11.1 mL/min/kg
same,clearance,[1]; [12],39.9 ± 6.74 mL/min/kg
same,MRT,"[1]; rat, iv, 10 mg/kg, SIDM rats",44.3 min
same,MRT,[1]; [12],21.3 min
same,half-life,"[1]; rat, iv, 10 mg/kg, SIDM rats",26.5 ± 2.81 min
same,half-life,[1]; [12],30.2 ± 4.83 min
same,Vd,"[1]; rat, iv, 10 mg/kg, SIDM rats",3.56 ± 2.38 L/kg
same,Vd,[1]; [12],0.986 ± 0.379 L/kg
same,Ae0-24 h (dose excreted in urine for 24 h),"[2]; oral 20 mg/kg, SIDM rats",6.94 ± 2.42 % of dose
same,GI24 h (dose remaining in the gastrointestinal tract at 24 h),"[2]; oral 20 mg/kg, SIDM rats, 20 mg/kg",0.238 % of dose and 0.238 ± 0.160 % of dose
same,AUC lower in SIDM rats than control rats,"[2]; oral 20 mg/kg, SIDM vs control",55.5%
same,CLR higher in SIDM rats than control rats,"[2]; oral 20 mg/kg, SIDM vs control",145%
same,Cmax lower in SIDM rats than control rats,"[2]; oral 20 mg/kg, SIDM vs control",61.1%
same,Decrease of F (bioavailability) in SIDM rats vs control rats,"[2]; oral 20 mg/kg, SIDM vs control, 20 mg/kg",33%
same,Ae0-24 h (dose excreted in urine for 24 h),"[2]; oral 20 mg/kg, control rats",7.98 ± 1.34 % of dose
same,GI24 h (dose remaining in the gastrointestinal tract at 24 h),"[2]; oral 20 mg/kg, control rats, 20 mg/kg",0.177 % of dose and 0.177 ± 0.123 % of dose
same,CL renal,"[2]; rat, po, 20 mg/kg, oral 20 mg/kg, SIDM rats",21.7 ± 14.9 mL/min/kg
same,CL renal,"[2]; rat, po, 20 mg/kg, oral 20 mg/kg, control rats",8.86 ± 13.5 mL/min/kg
same,bioavailability,"[2]; rat, plasma, 20 mg/kg, SIDM rats",23.8%
same,bioavailability,"[2]; rat, plasma, 20 mg/kg, control rats",35.5%
same,AUC,"[2]; rat, plasma, po, 20 mg/kg, oral 20 mg/kg, SIDM rats (n=7)",1350 ng·h/mL
same,AUC,"[2]; rat, plasma, po, 20 mg/kg, oral 20 mg/kg, control rats (n=8)",3030 ng·h/mL
same,Cmax,"[2]; rat, plasma, po, 20 mg/kg, Cmax, oral 20 mg/kg, SIDM rats",680 ± 360 ng/mL
same,Tmax,"[2]; rat, plasma, po, 20 mg/kg, oral 20 mg/kg, SIDM rats",25.7 min
same,Tmax,"[2]; rat, plasma, po, 20 mg/kg, oral 20 mg/kg, control rats",17.9 min
same,Tissue distribution,[3],widely distributed
same,"fraction unbound at 24 h, 10 µg/mL",[4],0.769 to 0.781
same,CLint faster in SIDM rats than control rats,[5],112%
same,Km smaller in SIDM rats than control rats,[5],44.3%
same,"Km, SIDM vs control rats",[6],comparable
same,CLint faster in SIDM rats than control rats,[6]; SIDM vs control,35.4%
same,Terminal half-life,[7],approximately 3.3 h
same,P-glycoprotein (P-gp) substrate status,[8],substrate of P-glycoprotein
